How the values were obtained:
Format in all cases: cell-based
CXCR4 = biological target: T1, CXCR4 (Homo sapiens, UniProt P61073); assay: Chemotaxis assay for receptor specificity, HEK293-CXCR4; conditions: compound as chemoattractant in lower chamber, 0.2, 1, 5, 25 μM
T1 construct: expressed in transfected cells; host or cells: HEK293; plasmid from Chinese National Human Genome Center
Description: HEK293 cells were transfected with different chemokine receptors. Compound 8a with DMSO was diluted to 0.2 mM, 1 mM, 5 mM and 25 mM, and then we used RPMI 1640 medium containing 0.1% BSA for dilution. The final concentration is: 0.2 μM, 1 μM, 5 μM and 25 μM. DMSO was also diluted 1000-fold with 0.1% BSA RPMI 1640 medium. Chemokines was also diluted to an appropriate concentration. The dilutions of Compound 8a, 1‰ DMSO, the corresponding chemokines of different receptors and 0.1% BSA RPMI 1640 medium were placed in the lower chambers (27.5 μl/well). The transfected HEK293 cells were resuspended in the same medium at a density of 1 × 10^6 cells/ml and added to the upper chambers (55 μl/well).

CCR4 = biological target: T2, CCR4 (Homo sapiens, UniProt P51679); assay: Chemotaxis inhibition assay, pcDI-CCR4-transfected HEK293 cells; conditions: 1 μM compound, 30 min pretreatment; C27 100 ng/ml; compared with compound 22 and compound 6b
T2 construct: expressed in transfected cells; cell membrane extract
T2 sequence (P51679 1-360): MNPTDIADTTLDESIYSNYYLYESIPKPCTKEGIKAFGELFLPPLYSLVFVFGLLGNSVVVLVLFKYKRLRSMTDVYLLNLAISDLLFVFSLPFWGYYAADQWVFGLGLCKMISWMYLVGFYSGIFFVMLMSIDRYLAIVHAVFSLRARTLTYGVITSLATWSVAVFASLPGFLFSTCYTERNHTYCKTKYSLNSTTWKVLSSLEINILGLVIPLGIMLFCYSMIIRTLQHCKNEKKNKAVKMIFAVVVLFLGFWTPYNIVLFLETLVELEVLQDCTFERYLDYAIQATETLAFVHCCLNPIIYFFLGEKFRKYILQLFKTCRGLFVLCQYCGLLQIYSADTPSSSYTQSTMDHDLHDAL
Description: Chemokine receptor expression plasmid was transiently transfected into HEK293 by electroporation at 120 V for 20 ms, using an electric pulse generator (Electro Square Porator ECM 830; BTX, San Diego, CA). Forty-eight-well micro chemotaxis chambers (Neutroprobe, Bethesda, MD, USA) were used in this assay. Forty-eight hours later, the cells were pretreated with compounds or compounds dissolved medium (1‰ DMSO) for 30 min at 37 °C prior to stimulation with chemoattractant. Chemoattractant diluted in RPMI 1640 medium supplemented with 0.1% bovine serum albumin (BSA) was placed in the lower chambers (27.5 μl/well). In these assays, CCL22 and CCL17 (Peprotech, Rocky Hill, NJ, USA) were used as chemoattractant and the final concentrations of chemoattractant were 10 ng/ml and 80 ng/ml respectively. The pcDI-CCR4-transfected HEK293 cells were resuspended in the same medium at a density of 1 × 10^6 cells/ml and added to the upper chambers (55 μl/well). […] Cells that migrated into each filter were counted in five randomly selected high-power fields (400 × ) per well. […] The chemotactic index was calculated and expressed as the number of cells that migrated to the sample over the number of cells that migrated to the control medium.

CXCR3 = biological target: T3, CXCR3 (Homo sapiens, UniProt P49682); assay: Chemotaxis inhibition assay for receptor specificity, HEK293-CXCR3; conditions: 0.2, 1, 5, 25 μM, 30 min pretreatment
T3 construct: expressed in transfected cells; host or cells: HEK293; plasmid from Chinese National Human Genome Center
T3 sequence (P49682 1-415 isoform P49682-2): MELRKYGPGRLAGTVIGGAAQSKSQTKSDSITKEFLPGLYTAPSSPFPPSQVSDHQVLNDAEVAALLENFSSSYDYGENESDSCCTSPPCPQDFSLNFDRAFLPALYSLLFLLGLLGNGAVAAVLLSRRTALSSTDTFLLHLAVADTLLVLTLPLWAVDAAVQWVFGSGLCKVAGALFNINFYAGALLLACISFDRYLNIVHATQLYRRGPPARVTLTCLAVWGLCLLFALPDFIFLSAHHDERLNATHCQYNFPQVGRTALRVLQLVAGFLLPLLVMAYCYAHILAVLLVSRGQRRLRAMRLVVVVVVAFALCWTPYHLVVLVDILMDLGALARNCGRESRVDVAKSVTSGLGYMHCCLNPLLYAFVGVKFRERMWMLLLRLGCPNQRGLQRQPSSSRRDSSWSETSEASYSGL
Description: HEK293 cells were transfected with different chemokine receptors. The corresponding chemokines of different receptors were placed in the lower chambers. The transfected cells were pretreated with different concentrations of Compound 8a or 1‰ DMSO for 30 min at a density of 1 × 10^6 cells/ml and added to the upper chambers, the final concentration of the compound is: 0.2 μM, 1 μM, 5 μM, and 25 μM, respectively.

T1 sequence (P61073 1-356 isoform P61073-2): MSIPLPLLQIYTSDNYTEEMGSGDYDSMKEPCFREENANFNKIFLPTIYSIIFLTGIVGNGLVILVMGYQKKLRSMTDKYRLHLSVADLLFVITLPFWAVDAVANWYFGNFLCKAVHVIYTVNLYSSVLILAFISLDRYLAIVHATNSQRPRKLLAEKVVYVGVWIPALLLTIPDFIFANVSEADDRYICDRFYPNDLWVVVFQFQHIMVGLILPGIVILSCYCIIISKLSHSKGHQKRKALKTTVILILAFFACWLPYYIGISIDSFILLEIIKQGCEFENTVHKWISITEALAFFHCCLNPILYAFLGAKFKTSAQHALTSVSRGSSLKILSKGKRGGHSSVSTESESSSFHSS

Structure (SMILES): O=C(C1CCCCN1)N1CCN(c2nc(Cl)cc(NCc3ccc(Cl)cc3Cl)n2)CC1 (stereo not drawn) [compound 8a, {4-[4-Chloro-6-(2,4-dichloro-benzylamino)-pyrimidin-2-yl]-piperazin-1-yl}-piperidin-2-yl-methanone]
- chemotaxis effect of the compound on HEK293-CXCR4 (CXCR4): didn’t exert chemotaxis effects
- inhibition of chemotaxis of CCR4 transfected HEK293 to C27 (CCR4): more positive efficiency
- inhibition of chemotaxis of HEK293-CXCR3 to its ligand (CXCR3): few influence

Reference: publication PMC5678437, “A new antagonist for CCR4 attenuates allergic lung inflammation in a mouse model of asthma” (Scientific Reports, 2017)
